Laboratory results taken from US7888050B2, “Method for quantifying phosphokinase activity on proteins” (Life Technologies Corporation, priority 2000, dated 2011).

Target: T1, human EGFR (Homo sapiens, UniProt P00533)
T1 construct: purchased Sigma E-2645; host or cells: A431 human carcinoma cells (natural source)
Assay: EGFR autophosphorylation, EGFR [pY845] PSSA ELISA
Assay type: biochemical
Conditions: purified human EGFR, 1 uM ATP, 30 minutes at 30° C.; FIG. 16
From the text: EGFR System: This model system presents an analysis of the cell surface receptor Epidermal Growth Factor Receptor (EGFR). This protein is a large transmembrane signaling protein with multiple phosphorylation sites consisting of phospho-threonine, phospho-serine and phospho-tyrosine residues. EGFR protein: Human EGFR protein was purified from human carcinoma A431 cells by affinity purification. The product is purchased from Sigma (St. Louis, Mo.; cat #E-2645). EGFR [pY^11731 PSSA: Rabbit antiserum was produced against a chemically synthesized phosphopeptide derived from the region of EGFR that contains tyrosine 1173. The sequence is conserved in human, mouse, and rat. Antibody was purified from serum by sequential epitope-specific chromatography. […] The final product is generated by affinity chromatography using an EGFR derived peptide that is phosphorylated at tyrosine 1173. […] EGFR [Py^8451 PSSA: Prepared essentially as EGFR [pY^1173] PSSA but using chemically synthesized phosphopeptides from the region that contains tyrosine 845. EGFR [Pan] monoclonal antibody: The capture antibody is a mouse monoclonal antibody, clone 199.12, available commercially from Neomarkers, Inc. (Union City, Calif.). […] This antibody will bind to both non-phosphorylated and phosphorylated forms of EGFR protein and therefore is used as an initial capture antibody in the EGFR ELISA. EGFR [Pan] […]

T1 sequence (P00533 25-1210): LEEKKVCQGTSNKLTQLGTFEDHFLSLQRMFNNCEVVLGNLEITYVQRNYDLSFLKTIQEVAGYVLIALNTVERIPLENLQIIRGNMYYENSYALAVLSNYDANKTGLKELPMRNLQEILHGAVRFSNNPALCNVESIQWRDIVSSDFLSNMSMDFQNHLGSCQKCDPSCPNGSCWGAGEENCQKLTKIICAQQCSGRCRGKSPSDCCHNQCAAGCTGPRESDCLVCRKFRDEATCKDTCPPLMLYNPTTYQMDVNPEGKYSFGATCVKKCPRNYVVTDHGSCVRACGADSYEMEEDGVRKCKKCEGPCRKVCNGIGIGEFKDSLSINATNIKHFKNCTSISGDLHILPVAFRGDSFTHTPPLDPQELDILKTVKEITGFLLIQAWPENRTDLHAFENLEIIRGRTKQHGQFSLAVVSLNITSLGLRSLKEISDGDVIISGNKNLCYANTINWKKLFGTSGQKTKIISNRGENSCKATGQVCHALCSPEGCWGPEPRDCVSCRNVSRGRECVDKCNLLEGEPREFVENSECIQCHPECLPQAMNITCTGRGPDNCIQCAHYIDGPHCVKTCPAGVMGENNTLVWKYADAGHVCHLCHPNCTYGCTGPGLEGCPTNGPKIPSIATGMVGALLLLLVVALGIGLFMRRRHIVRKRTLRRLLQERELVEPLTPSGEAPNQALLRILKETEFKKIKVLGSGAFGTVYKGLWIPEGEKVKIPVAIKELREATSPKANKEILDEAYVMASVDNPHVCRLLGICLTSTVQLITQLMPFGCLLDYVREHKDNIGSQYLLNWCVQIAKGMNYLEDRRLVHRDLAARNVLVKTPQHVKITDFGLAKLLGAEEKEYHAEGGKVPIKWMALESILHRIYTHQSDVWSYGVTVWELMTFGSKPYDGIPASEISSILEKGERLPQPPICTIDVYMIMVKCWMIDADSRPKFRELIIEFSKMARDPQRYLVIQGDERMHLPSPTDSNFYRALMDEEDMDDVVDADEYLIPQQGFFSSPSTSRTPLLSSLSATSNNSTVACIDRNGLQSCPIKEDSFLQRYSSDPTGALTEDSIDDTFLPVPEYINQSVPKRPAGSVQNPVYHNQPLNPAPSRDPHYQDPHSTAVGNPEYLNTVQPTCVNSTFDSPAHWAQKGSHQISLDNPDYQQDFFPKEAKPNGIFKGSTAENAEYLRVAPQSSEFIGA

CNc1cc2c(Nc3cccc(Br)c3)ncnc2cn1 [PD158780]
EGFR [pY845] phosphorylation (autophosphorylation): inhibition of that activity
